Measured values: US8349828B2, “Azatricyclic antibiotic compounds” (Actelion Pharmaceuticals Ltd., priority 2008, dated 2013)
≈ marks a conversion by molar mass, not a printed value.

test system: M. catarrhalis A894; test: MIC determination by microdilution in cation-adjusted Mueller-Hinton Broth (CLSI M7-A7); type: cell-based; conditions: Moraxella catarrhalis, A894, microdilution method
Description: Minimal inhibitory concentrations (MICs, in mg/l) were determined in cation-adjusted Mueller-Hinton Broth by a microdilution method following the description given in “Methods for Dilution Antimicrobial Susceptibility Tests for Bacteria that Grow Aerobically”, Approved standard, 7th ed., Clinical and Laboratory Standards Institute (CLSI) Document M7-A7, Wayne, Pa., USA, 2006. All Example compounds were tested against several Gram-positive and Gram-negative bacteria.

Going from `O=C1CSc2ccc(N3C[C@@H](CNCC4Cn5c(=O)ccc6nccc(c65)O4)OC3=O)cc2N1` (mixture of isomers) [Example 1, 2-(RS)-({[(R)-2-oxo-3-(3-oxo-3,4-dihydro-2H-benzo[1,4]thiazin-6-yl)-oxazolidin-5-ylmethyl]-amino}-methyl)-2,3-dihydro-1-oxa-3a,7-diaza-phenalen-4-one] to `O=C1COc2ccc(N3C[C@@H](CNCC4Cn5c(=O)ccc6nccc(c65)O4)OC3=O)cc2N1` (mixture of isomers) [Example 2, 2-(RS)-({[(R)-2-oxo-3-(3-oxo-3,4-dihydro-2H-benzo[1,4]oxazin-6-yl)-oxazolidin-5-ylmethyl]-amino}-methyl)-2,3-dihydro-1-oxa-3a,7-diaza-phenalen-4-one], the MIC rises from at most 0.063 µg/mL to 0.5 µg/mL.

`O=C1CSc2ccc(N3C[C@@H](CNCC4Cc5c(F)ccc6ccc(=O)n(c56)C4)OC3=O)cc2N1` (mixture of isomers) [Example 3, (6RS)-8-fluoro-6-({[(R)-2-oxo-3-(3-oxo-3,4-dihydro-2H-benzo[1,4]thiazin-6-yl)-oxazolidin-5-ylmethyl]-amino}-methyl)-6,7-dihydro-5H-pyrido[3,2,1-ij]quinolin-3-one] and `O=C1CSc2ccc(N3C[C@@H](CNCC4Cc5c(F)ccc6ccc(=O)n4c56)OC3=O)cc2N1` (mixture of isomers) [Example 9, (RS)-9-fluoro-2-({[(R)-2-oxo-3-(3-oxo-3,4-dihydro-2H-benzo[1,4]thiazin-6-yl)-oxazolidin-5-ylmethyl]-amino}-methyl)-1,2-dihydro-pyrrolo[3,2,1-ij]quinolin-4-one] cannot be ordered by MIC: at most 0.063 µg/mL for the first, at most 0.063 µg/mL for the second.

Going from `O=C1COc2ccc(N3C[C@@H](CNCC4Cc5c(F)ccc6ccc(=O)n(c56)C4)OC3=O)cc2N1` (mixture of isomers) [Example 4, (6RS)-8-fluoro-6-({[(R)-2-oxo-3-(3-oxo-3,4-dihydro-2H-benzo[1,4]oxazin-6-yl)-oxazolidin-5-ylmethyl]-amino}-methyl)-6,7-dihydro-5H-pyrido[3,2,1-ij]quinolin-3-one] to `O=C1COc2ccc(N3C[C@@H](CNC[C@H]4Cc5c(F)ccc6ccc(=O)n4c56)OC3=O)cc2N1` [Example 8, (R)-9-fluoro-2-({[(R)-2-oxo-3-(3-oxo-3,4-dihydro-2H-benzo[1,4]oxazin-6-yl)-oxazolidin-5-ylmethyl]-amino}-methyl)-1,2-dihydro-pyrrolo[3,2,1-ij]quinolin-4-one], the MIC rises from at most 0.063 µg/mL to 0.125 µg/mL (≈ 0.269 µM).

`O=C1O[C@H](CNCC2Cc3c(F)ccc4ccc(=O)n(c34)C2)CN1c1ccc2c(c1)OCCO2` (mixture of isomers) [Example 5, (6RS)-6-({[(R)-3-(2,3-dihydro-benzo[1,4]dioxin-6-yl)-2-oxo-oxazolidin-5-ylmethyl]-amino}-methyl)-8-fluoro-6,7-dihydro-5H-pyrido[3,2,1-ij]quinolin-3-one] and `O=C1COc2ccc(N3C[C@@H](CNCC4Cc5c(F)cnc6ccc(=O)n(c56)C4)OC3=O)cc2N1` (mixture of isomers) [Example 14, (RS)-3-fluoro-5-({[(R)-2-oxo-3-(3-oxo-3,4-dihydro-2H-benzo[1,4]oxazin-6-yl)-oxazolidin-5-ylmethyl]-amino}-methyl)-5,6-dihydro-4H-1,6a-diaza-phenalen-7-one] cannot be ordered by MIC: at most 0.063 µg/mL for the first, at most 0.063 µg/mL for the second.

`O=C1CSc2ccc(N3CC(CCNC[C@H]4Cc5c(F)ccc6ccc(=O)n4c56)OC3=O)cc2N1` (mixture of isomers) [Example 10, (R)-9-fluoro-2-({2-[(RS)-2-oxo-3-(3-oxo-3,4-dihydro-2H-benzo[1,4]thiazin-6-yl)-oxazolidin-5-yl]-ethylamino}-methyl)-1,2-dihydropyrrolo[3,2,1-ij]quinolin-4-one] and `O=C1CSc2ccc(N3C[C@@H](CNC[C@H]4Cc5c(F)ccc6ccc(=O)n4c56)OC3=O)cc2N1` [Example 6, (R)-9-fluoro-2-({[(R)-2-oxo-3-(3-oxo-3,4-dihydro-2H-benzo[1,4]thiazin-6-yl)-oxazolidin-5-ylmethyl]-amino}-methyl)-1,2-dihydro-pyrrolo[3,2,1-ij]quinolin-4-one] cannot be ordered by MIC: at most 0.063 µg/mL for the first, at most 0.063 µg/mL for the second.

`O=C1CSc2ccc(N3C[C@@H](CNCC4Cn5c(=O)ccc6cccc(c65)O4)OC3=O)cc2N1` (mixture of isomers) [Example 11, (RS)-2-({[(R)-2-oxo-3-(3-oxo-3,4-dihydro-2H-benzo[1,4]thiazin-6-yl)-oxazolidin-5-ylmethyl]-amino}-methyl)-2,3-dihydro-1-oxa-3a-aza-phenalen-4-one] and `O=C1CSc2ccc(N3C[C@@H](CNCC4Cn5c(=O)ccc6ccc(F)c(c65)O4)OC3=O)cc2N1` (mixture of isomers) [Example 12, (RS)-9-fluoro-2-({[(R)-2-oxo-3-(3-oxo-3,4-dihydro-2H-benzo[1,4]thiazin-6-yl)-oxazolidin-5-ylmethyl]-amino}-methyl)-2,3-dihydro-1-oxa-3a-aza-phenalen-4-one] cannot be ordered by MIC: at most 0.063 µg/mL for the first, at most 0.063 µg/mL for the second.

`O=C1CSc2ccc(N3C[C@@H](CNCC4Cc5c(F)cnc6ccc(=O)n(c56)C4)OC3=O)cc2N1` (mixture of isomers) [Example 13, (RS)-3-fluoro-5-({[(R)-2-oxo-3-(3-oxo-3,4-dihydro-2H-benzo[1,4]thiazin-6-yl)-oxazolidin-5-ylmethyl]-amino}-methyl)-5,6-dihydro-4H-1,6a-diaza-phenalen-7-one] and `O=C1CSc2ccc(N3C[C@@H](CCNCC4Cc5c(F)cnc6ccc(=O)n4c56)OC3=O)cc2N1` (mixture of isomers) [Example 15, (RS)-3-fluoro-5-({2-[(R)-2-oxo-3-(3-oxo-3,4-dihydro-2H-benzo[1,4]thiazin-6-yl)-oxazolidin-5-yl]-ethylamino}-methyl)-4,5-dihydropyrrolo[3,2,1-de][1,5]naphthyridin-7-one] cannot be ordered by MIC: at most 0.063 µg/mL for the first, at most 0.063 µg/mL for the second.

`O=C1COc2ccc(N3C[C@@H](CCNCC4Cc5c(F)ccc6ccc(=O)n4c56)OC3=O)cc2N1` (mixture of isomers) [Example 21, (RS)-9-fluoro-2-({2-[(R)-2-oxo-3-(3-oxo-3,4-dihydro-2H-benzo[1,4]oxazin-6-yl)-oxazolidin-5-yl]-ethylamino}-methyl)-1,2-dihydropyrrolo[3,2,1-ij]quinolin-4-one] and `O=C1COc2ccc(N3C[C@H](CCNCC4Cc5c(F)ccc6ccc(=O)n4c56)OC3=O)cc2N1` (mixture of isomers) [Example 22, (RS)-9-fluoro-2-({2-[(S)-2-oxo-3-(3-oxo-3,4-dihydro-2H-benzo[1,4]oxazin-6-yl)-oxazolidin-5-yl]-ethylamino}-methyl)-1,2-dihydropyrrolo[3,2,1-ij]quinolin-4-one] cannot be ordered by MIC: at most 0.063 µg/mL for the first, at most 0.063 µg/mL for the second.

Compared with `O=C1COc2ccc(N3C[C@@H](CCNCC4Cc5c(F)ccc6c5N4C(=O)CC6)OC3=O)cc2N1` (mixture of isomers) [Example 23, (RS)-9-fluoro-2-({2-[(R)-2-oxo-3-(3-oxo-3,4-dihydro-2H-benzo[1,4]oxazin-6-yl)-oxazolidin-5-yl]-ethylamino}-methyl)-1,2,5,6-tetrahydropyrrolo[3,2,1-ij]quinolin-4-one], `O=C1COc2ccc(N3C[C@H](CCNCC4Cc5ccnc6ccc(=O)n4c56)OC3=O)cc2N1` (mixture of isomers) [Example 25, (RS)-5-({2-[(S)-2-oxo-3-(3-oxo-3,4-dihydro-2H-benzo[1,4]oxazin-6-yl)-oxazolidin-5-yl]-ethylamino}-methyl)-4,5-dihydro-pyrrolo[3,2,1-de][1,5]naphthyridin-7-one] is higher in MIC: at most 0.063 µg/mL for the first, 4 µg/mL for the second.

Going from `O=C1CSc2ccc(N3C[C@@H](CCNCC4Cc5ccnc6ccc(=O)n4c56)OC3=O)cc2N1` (mixture of isomers) [Example 24, (RS)-5-({2-[(R)-2-oxo-3-(3-oxo-3,4-dihydro-2H-benzo[1,4]thiazin-6-yl)-oxazolidin-5-yl]-ethylamino}-methyl)-4,5-dihydro-pyrrolo[3,2,1-de][1,5]naphthyridin-7-one] to `O=C1CSc2ccc(N3C[C@@H](CCNCC4Cc5cccc6ccc(=O)n4c56)OC3=O)cc2N1` (mixture of isomers) [Example 26, (RS)-2-({2-[(R)-2-oxo-3-(3-oxo-3,4-dihydro-2H-benzo[1,4]thiazin-6-yl)-oxazolidin-5-yl]-ethylamino}-methyl)-1,2-dihydro-pyrrolo[3,2,1-ij]quinolin-4-one], the MIC falls from 2 µg/mL to at most 0.063 µg/mL.

`O=C1COc2ccc(N3C[C@@H](CCNCC4Cc5cccc6ccc(=O)n4c56)OC3=O)cc2N1` (mixture of isomers) [Example 27, (RS)-2-({2-[(R)-2-oxo-3-(3-oxo-3,4-dihydro-2H-benzo[1,4]oxazin-6-yl)-oxazolidin-5-yl]-ethylamino}-methyl)-1,2-dihydro-pyrrolo[3,2,1-ij]quinolin-4-one] and `O=C1CSc2ccc(N3C[C@@H](CNCC4Cc5cccc6ccc(=O)n4c56)OC3=O)cc2N1` (mixture of isomers) [Example 28, (RS)-2-({[(R)-2-oxo-3-(3-oxo-3,4-dihydro-2H-benzo[1,4]thiazin-6-yl)-oxazolidin-5-ylmethyl]-amino}-methyl)-1,2-dihydro-pyrrolo[3,2,1-ij]quinolin-4-one] cannot be ordered by MIC: at most 0.063 µg/mL for the first, at most 0.063 µg/mL for the second.

`O=C1COc2ccc(N3C[C@H](CCNCC4Cc5cccc6ncc(=O)n4c56)OC3=O)nc2N1` (mixture of isomers) [Example 31, (RS)-5-({2-[(S)-2-oxo-3-(3-oxo-3,4-dihydro-2H-pyrido[3,2-b][1,4]oxazin-6-yl)-oxazolidin-5-yl]-ethylamino}-methyl)-5,6-dihydropyrrolo[1,2,3-de]quinoxalin-3-one] and `O=C1CSc2ccc(N3C[C@@H](CCN[C@@H]4Cc5c(F)ccc6ccc(=O)n(c56)C4)OC3=O)cc2N1` (racemic) [Example 7, (6RS)-8-fluoro-6-{2-[(RS)-2-oxo-3-(3-oxo-3,4-dihydro-2H-benzo[1,4]thiazin-6-yl)-oxazolidin-5-yl]-ethylamino}-6,7-dihydro-5H-pyrido[3,2,1-ij]quinolin-3-one] cannot be ordered by MIC: at most 0.063 µg/mL for the first, at most 0.063 µg/mL for the second.
